Laboratory results reported in patent US4745177A, “Desulfatohirudins, the preparation thereof and pharmaceutical compositions containing them” (Ciba-Geigy Corporation, priority 1983, dated 1988).

Columns and labels:
[1] = target: T1, thrombin (Homo sapiens, UniProt P00734); settings: thrombin inhibitor; cited from earlier work
[2] = target: T1, thrombin; assay: inhibition of thrombin with chromogenic substrate Chromozym TH; type: biochemical; settings: starting material of Example 1
Method: The biological activity is determined from the inhibition of thrombin, whose enzymatic activity is in turn determined using the chromogenic substrate Chromozym TH (a product of Boehringer, Mannheim, West Germany, for thrombin and hirudin determination) in accordance with known directions supplied with the test preparation.

[3] = system: experimental thrombosis (stasis or thrombin injection), endotoxin shock, DIC; settings: cited from earlier work
[4] = system: other proteinases of the clotting cascade; settings: completely specific for thrombin; cited from earlier work
[5] = unusually high doses given to dogs; cited from earlier work

In the case of Hirudin, the Ki [1] is given as ~0.06 nM, the “activity (inhibition of thrombin)” value [2] is given as 630 IU/mg and the “efficacy in experimental thrombosis, endotoxin shock and DIC” value ([3]; rats, pigs, dogs, thrombosis induced by stasis or thrombin injection) is given as “proved effective”. For the same substance, the “direct comparison with heparin” value ([3]; whenever direct comparison tests were carried out) was “superior to heparin”, the “inhibition of other proteinases of the clotting cascade” value [4] was “does not inhibit” and the “effect on heart rate, respiration, blood pressure, thrombocytes, fibrinogen and haemoglobin” value [5] was “No effect”.
